Laboratory results reported in patent US9914730B2, “Azaquinazoline inhibitors of Atypical protein Kinase C” (Ignyta, Inc., priority 2012, dated 2018).

Biological target: T1, full-length human PKCι (Homo sapiens, UniProt P41743)
T1 construct: Recombinant, full-length human PKCι expressed in Sf21 insect cells is also commercially available; purchased; host or cells: Sf21 insect cells
T1 sequence (P41743 1-596): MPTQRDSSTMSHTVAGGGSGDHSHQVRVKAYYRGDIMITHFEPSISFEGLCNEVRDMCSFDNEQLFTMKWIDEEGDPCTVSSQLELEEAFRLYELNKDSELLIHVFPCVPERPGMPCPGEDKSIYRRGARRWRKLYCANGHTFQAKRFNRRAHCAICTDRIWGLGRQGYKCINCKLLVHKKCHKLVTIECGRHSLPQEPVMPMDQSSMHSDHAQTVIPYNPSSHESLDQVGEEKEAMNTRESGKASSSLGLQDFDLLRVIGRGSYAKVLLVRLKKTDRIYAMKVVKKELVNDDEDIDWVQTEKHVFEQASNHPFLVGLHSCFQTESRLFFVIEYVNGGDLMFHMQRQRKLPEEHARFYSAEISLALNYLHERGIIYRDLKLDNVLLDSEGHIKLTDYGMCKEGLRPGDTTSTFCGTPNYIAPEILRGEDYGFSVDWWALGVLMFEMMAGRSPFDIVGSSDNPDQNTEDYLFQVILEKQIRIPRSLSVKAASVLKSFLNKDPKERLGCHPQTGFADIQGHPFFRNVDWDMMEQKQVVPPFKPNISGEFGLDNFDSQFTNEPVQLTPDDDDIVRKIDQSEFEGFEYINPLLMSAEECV
Assay: PKCι IC50 IMAP assay, full-length PKCι at 150 μM ATP
Assay type: biochemical
Conditions: read-out: IC50 in IMAP assay against full length PKCi at 150 μM ATP
Summary of the method: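 Recombinant full-length human PKCι (Sf21-expressed, typically 15 pM) phosphorylated 100 nM 5FAM-labelled PKCε pseudosubstrate-derived peptide with 150 μM ATP (5× KM^APP) in 18 mM tris-HCl pH7.5, 9 mM MgCl2, EGTA, DTT, 4% DMSO. After 60 min at room temperature, IMAP binding reagent was added for 2 h and fluorescence polarisation read.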

IC50 [nM] | Compound
100 to 1000 | CNC(=O)C1CCN(c2nc(-c3ccnc(Nc4c(F)cccc4F)c3)nc3cncc(C4CC4)c23)C1 (stereo not drawn) [Example 726, 1-{5-Cyclopropyl-2-[2-(2,6-difluoro-phenylamino)-pyridin-4-yl]-pyrido[3,4-d]pyrimidin-4-yl}-pyrrolidine-3-carboxylic acid methylamide]
< 100 | c1cc(-c2nc(N3CCNCC3)c3c(C4CC4)cncc3n2)c2cc(C3CCC3)[nH]c2n1 [Example 2146, 2-(2-Cyclobutyl-1H-pyrrolo[2,3-b]pyridin-4-yl)-5-cyclopropyl-4-piperazin-1-yl-pyrido[3,4-d]pyrimidine]
< 100 | FC(F)(F)c1cc2c(-c3nc(N4CCNCC4)c4c(C5CCC5)cncc4n3)ccnc2[nH]1 [Example 2024, 5-Cyclobutyl-4-piperazin-1-yl-2-(2-trifluoromethyl-1H-pyrrolo[2,3-b]pyridin-4-yl)-pyrido[3,4-d]pyrimidine]
< 100 | CN1CCN(c2cccc(Nc3cc(-c4nc(N5CCC(O)C(O)C5)c5c(C6CC6)cncc5n4)ccn3)c2)CC1 (single isomer, unassigned) [Example 751, (3R,4S or 3R,4S)-1-(5-Cyclopropyl-2-{2-[3-(4-methyl-piperazin-1-yl)-phenylamino]-pyridin-4-yl}-pyrido[3,4-d]pyrimidin-4-yl)-piperidine-3,4-diol]
< 100 | CC(C)(C)c1cc2c(-c3nc(N4CCNCC4)c4c(C5CCC5)cncc4n3)ccnc2[nH]1 [Example 2010, 2-(2-tert-Butyl-1H-pyrrolo[2,3-b]pyridin-4-yl)-5-cyclobutyl-4-piperazin-1-yl-pyrido[3,4-d]pyrimidine]
< 100 | c1cc(-c2nc(N3CCNCC3)c3c(C4CCC4)cncc3n2)c2cc([C@@H]3C[C@H]4CC[C@@H]3O4)[nH]c2n1 (racemic) [Example 2122, (±)-exo-5-Cyclobutyl-2-[2-(7-oxa-bicyclo[2.2.1]hept-2-yl)-1H-pyrrolo[2,3-b]pyridin-4-yl]-4-piperazin-1-yl-pyrido[3,4-d]pyrimidine]
100 to 1000 | OC1CCN(c2nc(-c3ccnc(Nc4cccc(F)n4)c3)nc3cncc(C4CC4)c23)CC1 [Example 805, 1-{5-Cyclopropyl-2-[2-(6-fluoro-pyridin-2-ylamino)-pyridin-4-yl]-pyrido[3,4-d]pyrimidin-4-yl}-piperidin-4-ol]

Second part, the compound before the results:

Compound | IC50 [nM]
CC(C)(Nc1cc(-c2nc(N3CCNCC3)c3c(C4CC4)cncc3n2)ccn1)C(F)(F)F [Example 598, [4-(5-Cyclopropyl-4-piperazin-1-yl-pyrido[3,4-d]pyrimidin-2-yl)-pyridin-2-yl]-(2,2,2-trifluoro-1,1-dimethyl-ethyl)-amine] | < 100
COc1cncc2nc(-c3ccnc(Nc4ccncn4)c3)nc(N3CCNCC3)c12 [Example 211, [4-(5-Methoxy-4-piperazin-1-yl-pyrido[3,4-d]pyrimidin-2-yl)-pyridin-2-yl]-pyrimidin-4-yl-amine] | < 100
N#Cc1ccnc2c1ccn2-c1cc(-c2nc(N[C@@H]3CCNC3)c3ccncc3n2)ccn1 [Example 328, 1-{4-[4-((R)-Pyrrolidin-3-ylamino)-pyrido[3,4-d]pyrimidin-2-yl]-pyridin-2-yl}-1H-pyrrolo[2,3-b]pyridine-4-carbonitrile] | 1000 to 10000
COc1cncc2nc(-c3ccncc3)nc(N3CCCCC3)c12 [Example 151, 5-Methoxy-4-piperidin-1-yl-2-pyridin-4-yl-pyrido[3,4-d]pyrimidine] | 100 to 1000
FC1(F)CCCC(Nc2cc(-c3nc(N4CCNCC4)c4c(C5CC5)cncc4n3)ccn2)C1 (stereo not drawn) [Example 673, [4-(5-Cyclopropyl-4-piperazin-1-yl-pyrido[3,4-d]pyrimidin-2-yl)-pyridin-2-yl]-(3,3-difluoro-cyclohexyl)-amine] | < 100
OC[C@@H](O)CN1CCN(c2nc(-c3ccnc(Nc4ccccc4)c3)nc3cncc(C4CC4)c23)CC1 [Example 607, (S)-3-{4-[5-Cyclopropyl-2-(2-phenylamino-pyridin-4-yl)-pyrido[3,4-d]pyrimidin-4-yl]-piperazin-1-yl}-propane-1,2-diol] | 100 to 1000
COc1cncc2nc(-c3ccnc(Nc4nc(C)co4)c3)nc(N3CCNCC3)c12 [Example 221, [4-(5-Methoxy-4-piperazin-1-yl-pyrido[3,4-d]pyrimidin-2-yl)-pyridin-2-yl]-(4-methyl-oxazol-2-yl)-amine] | < 100
c1cc(-c2nc(N3CCNCC3)c3c(C4CC4)cncc3n2)cc(N[C@H]2CCOC2)n1 [Example 518, [4-(5-Cyclopropyl-4-piperazin-1-yl-pyrido[3,4-d]pyrimidin-2-yl)-pyridin-2-yl]-(S)-tetrahydro-furan-3-yl-amine] | < 100
CC(=O)NC1CCN(c2nc(-c3ccnc(Nc4c(F)cccc4F)c3)nc3cncc(C4CC4)c23)CC1 [Example 657, N-(1-{5-Cyclopropyl-2-[2-(2,6-difluoro-phenylamino)-pyridin-4-yl]-pyrido[3,4-d]pyrimidin-4-yl}-piperidin-4-yl)-acetamide] | 100 to 1000
CS(=O)(=O)c1ccc(F)c(Nc2cc(-c3nc(N4CCNCC4)c4c(C5CC5)cncc4n3)ccn2)c1 [Example 556, [4-(5-Cyclopropyl-4-piperazin-1-yl-pyrido[3,4-d]pyrimidin-2-yl)-pyridin-2-yl]-(2-fluoro-5-methanesulfonyl-phenyl)-amine] | < 100
COc1cncc2nc(-c3ccnc(NC(=O)Cc4ccncc4)c3)nc(N3CCNCC3)c12 [Example 400, N-[4-(5-Methoxy-4-piperazin-1-yl-pyrido[3,4-d]pyrimidin-2-yl)-pyridin-2-yl]-2-pyridin-4-yl-acetamide] | < 100
N#CC[C@H]1CN(c2nc(-c3ccnc(Nc4ccccc4)c3)nc3cncc(C4CC4)c23)CCN1 [Example 280, {(S)-4-[5-Cyclopropyl-2-(2-phenylamino-pyridin-4-yl)-pyrido[3,4-d]pyrimidin-4-yl]-piperazin-2-yl}-acetonitrile] | < 100
COc1cc(Nc2cc(-c3nc(N4CCNCC4)c4c(C5CC5)cncc4n3)ccn2)ccc1C [Example 609, [4-(5-Cyclopropyl-4-piperazin-1-yl-pyrido[3,4-d]pyrimidin-2-yl)-pyridin-2-yl]-(3-methoxy-4-methyl-phenyl)-amine] | < 100
COc1ccc(Cl)c(Nc2cc(-c3nc(N4CCNCC4)c4c(C5CC5)cncc4n3)ccn2)c1 [Example 592, (2-Chloro-5-methoxy-phenyl)-[4-(5-cyclopropyl-4-piperazin-1-yl-pyrido[3,4-d]pyrimidin-2-yl)-pyridin-2-yl]-amine] | < 100
COc1cncc2nc(-c3ccnc(Nc4cccc(C#N)c4)c3)nc(N3CCNCC3)c12 [Example 205, 3-[4-(5-Methoxy-4-piperazin-1-yl-pyrido[3,4-d]pyrimidin-2-yl)-pyridin-2-ylamino]-benzonitrile] | 100 to 1000
COc1cncc2nc(-c3ccnc(Nc4ccccc4F)c3)nc(N[C@@H]3CCNC3)c12 [Example 228, {2-[2-(2-Fluoro-phenylamino)-pyridin-4-yl]-5-methoxy-pyrido[3,4-d]pyrimidin-4-yl}-(R)-pyrrolidin-3-yl-amine] | < 100
COc1cncc2nc(-c3ccnc(Nc4c(F)cccc4F)c3)nc(N3CCNCC3)c12 [Example 421, (2,6-Difluoro-phenyl)-[4-(5-methoxy-4-piperazin-1-yl-pyrido[3,4-d]pyrimidin-2-yl)-pyridin-2-yl]-amine] | < 100
